pIC50: −log10 of the molar value. Positions of bridges follow the written chain, without caps; N, C: chain ends. Non-standard residues stand in square brackets, D forms with d. Residues, ends and D or L forms follow the SMILES beside them. Trp(1-CH2COOH) = N[C@@H](Cc1cn(CC(=O)O)c2ccccc12)C(=O)O; Oic = O=C(O)[C@@H]1C[C@@H]2CCCC[C@@H]2N1; Hyp = O=C(O)[C@@H]1C[C@@H](O)CN1; NMeNle = CCCC[C@H](NC)C(=O)O; Pip = O=C(O)[C@@H]1CCCCN1; NMeA = CN[C@@H](C)C(=O)O; Dab = NCC[C@H](N)C(=O)O; Dap = NC[C@H](N)C(=O)O
How the values were obtained:
[1] = tested on: PD-1/PD-L1 interaction; details: read-out: IC50, inhibitory activity against the PD-1/PD-L1 interaction; cited from earlier work
[2] = target: PD-1/PD-L1 (Homo sapiens, UniProt Q9NZQ7); test: PD-1/PD-L1 TR-FRET assay; type: binding; details: IC50 on PD-1/PD-L1, TR-FRET assay
Chain of PD-1/PD-L1 (Q9NZQ7 19-238 limits assumed): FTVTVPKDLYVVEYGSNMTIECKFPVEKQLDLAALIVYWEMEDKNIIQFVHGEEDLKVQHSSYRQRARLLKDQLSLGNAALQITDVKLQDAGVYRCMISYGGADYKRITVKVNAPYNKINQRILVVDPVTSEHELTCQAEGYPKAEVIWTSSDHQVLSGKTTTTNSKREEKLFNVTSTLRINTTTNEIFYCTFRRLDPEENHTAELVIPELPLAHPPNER

SMILES	pIC50 [1]	pIC50 [2]
CCCC[C@H]1C(=O)N(C)[C@@H](CCCC)C(=O)N[C@@H](CCCNC(=N)N)C(=O)N[C@H](C(=O)NCC(N)=O)CSCC(=O)N[C@@H](Cc2ccccc2)C(=O)N(C)[C@@H](C)C(=O)N[C@@H](CC(N)=O)C(=O)N2CCC[C@H]2C(=O)N[C@@H](Cc2c[nH]cn2)C(=O)N[C@@H](CC(C)C)C(=O)N[C@@H](CO)C(=O)N[C@@H](Cc2c[nH]c3ccccc23)C(=O)N[C@@H](CO)C(=O)N[C@@H](Cc2c[nH]c3ccccc23)C(=O)N1C [Compound 1] ({CH2CO}-F[NMeA]NPHLSWSW[NMeNle][NMeNle]RCG-NH2; thioether N-14)	8.05	–
CCCC[C@H]1C(=O)N(C)[C@@H](CCCC)C(=O)N[C@@H](CC(C)C)C(=O)N[C@H](C(=O)NCC(N)=O)CSCC(=O)N[C@@H](Cc2ccccc2)C(=O)N(C)[C@@H](C)C(=O)N[C@@H](CC(N)=O)C(=O)N2CCC[C@H]2C(=O)N[C@@H](Cc2c[nH]cn2)C(=O)N[C@@H](CC(C)C)C(=O)N2C[C@H](O)C[C@H]2C(=O)N[C@@H](Cc2c[nH]c3ccccc23)C(=O)N[C@@H](CO)C(=O)N[C@@H](Cc2c[nH]c3ccccc23)C(=O)N1C [Compound 2] ({CH2CO}-F[NMeA]NPHL[Hyp]WSW[NMeNle][NMeNle]LCG-NH2; thioether N-14)	–	7.40
CCCC[C@H]1C(=O)N(C)[C@@H](CCCC)C(=O)N[C@@H](CC(C)C)C(=O)N[C@H](C(=O)NCC(N)=O)CSCC(=O)N[C@@H](Cc2ccc(O)cc2)C(=O)N2CCCC[C@H]2C(=O)N[C@@H](CC(N)=O)C(=O)N2[C@@H](C[C@@H]3CCCC[C@@H]32)C(=O)N[C@@H](CN)C(=O)N[C@@H](CC(C)C)C(=O)N2C[C@H](O)C[C@H]2C(=O)N[C@@H](Cc2c[nH]c3ccccc23)C(=O)N[C@@H](CCN)C(=O)N[C@@H](Cc2cn(CC(=O)O)c3ccccc23)C(=O)N1C [Compound 5] ({CH2CO}-Y[Pip]N[Oic][Dap]L[Hyp]W[Dab][Trp(1-CH2COOH)][NMeNle][NMeNle]LCG-NH2; thioether N-14)	–	7.84
